ChEMBL document CHEMBL1143065, “Discovery and characterization of 4'-(2-furyl)-N-pyridin-3-yl-4,5'-bipyrimidin-2'-amine (LAS38096), a potent, selective, and efficacious A2B adenosine receptor antagonist” (J Med Chem, 2007)
pIC50, pKi: −log10 of the molar value.

Columns and labels:
[1] = Volume of distribution at steady state in Wistar rat at 1 mg/kg, iv; type: ADME, organism-based; set-up: dose 1 mg/kg, route intravenous; conditions: in vivo, read-out: Vdss
[2] = biological target: T1, Adenosine receptor A3 (Homo sapiens) (UniProt P0DMS8); experiment: Displacement of […] from human A3 receptor expressed in HeLa cells at 1000 nM; type: cell-based
T1 sequence (whole entry): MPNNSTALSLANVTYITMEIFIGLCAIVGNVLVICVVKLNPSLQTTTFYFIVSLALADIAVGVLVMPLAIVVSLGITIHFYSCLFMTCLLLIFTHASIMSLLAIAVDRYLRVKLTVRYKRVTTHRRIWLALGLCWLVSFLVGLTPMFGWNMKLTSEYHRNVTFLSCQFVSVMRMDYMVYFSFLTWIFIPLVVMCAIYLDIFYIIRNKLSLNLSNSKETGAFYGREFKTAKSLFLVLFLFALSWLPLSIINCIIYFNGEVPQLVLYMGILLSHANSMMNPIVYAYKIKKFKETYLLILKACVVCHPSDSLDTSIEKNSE

[3] = biological target: T2, Adenosine receptor A1 (Homo sapiens) (UniProt P30542); experiment: Displacement of [3H]DPCPX from human A1 receptor expressed in CHO cells at 1000 nM; type: cell-based
T2 sequence (whole entry): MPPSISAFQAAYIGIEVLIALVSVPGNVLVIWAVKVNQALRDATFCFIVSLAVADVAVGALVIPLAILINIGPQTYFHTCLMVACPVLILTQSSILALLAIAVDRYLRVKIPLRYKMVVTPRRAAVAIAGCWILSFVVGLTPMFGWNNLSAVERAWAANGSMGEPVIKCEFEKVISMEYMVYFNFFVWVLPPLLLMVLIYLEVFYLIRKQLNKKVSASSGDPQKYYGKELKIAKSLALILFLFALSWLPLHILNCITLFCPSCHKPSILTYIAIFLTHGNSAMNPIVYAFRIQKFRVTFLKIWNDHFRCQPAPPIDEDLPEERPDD

[4] = Cmax in Swiss mouse at 10 mg/kg, po; type: ADME, organism-based; set-up: dose 10 mg/kg, route oral; conditions: in vivo
[5] = test system: Rattus norvegicus; experiment: Clearance in Wistar rat at 1 mg/kg, iv; type: ADME, organism-based; set-up: dose 1 mg/kg, route intravenous; conditions: in vivo
[6] = Cmax in Beagle dog at 10 mg/kg, po; type: ADME, organism-based, Canis lupus familiaris; set-up: dose 10 mg/kg, route oral; conditions: in vivo
[7] = Tmax in Swiss mouse at 10 mg/kg, po; type: ADME, organism-based; set-up: dose 10 mg/kg, route oral; conditions: in vivo
[8] = biological target: T3, Adenosine receptor A2b (Mus musculus, UniProt Q60614); experiment: Activity at mouse A2B receptor expressed in CHO cells assessed as inhibition of NECA-induced intracellular cAMP levels by ELISA; type: functional, cell-based
T3 sequence (Q60614 whole entry): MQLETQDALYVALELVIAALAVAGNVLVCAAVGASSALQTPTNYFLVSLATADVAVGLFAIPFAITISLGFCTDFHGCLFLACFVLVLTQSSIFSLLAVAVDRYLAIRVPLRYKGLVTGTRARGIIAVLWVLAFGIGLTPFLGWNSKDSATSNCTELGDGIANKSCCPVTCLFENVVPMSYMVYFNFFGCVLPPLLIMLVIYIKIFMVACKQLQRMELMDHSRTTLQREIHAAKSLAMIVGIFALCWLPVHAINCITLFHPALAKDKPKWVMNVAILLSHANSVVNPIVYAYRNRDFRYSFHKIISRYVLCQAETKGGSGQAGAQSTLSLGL

[9] = AUC in Swiss mouse at 10 mg/kg, po; type: ADME, organism-based; set-up: dose 10 mg/kg, route oral; conditions: plasma
[10] = Mean residence time in Beagle dog at 10 mg/kg, po; type: ADME, organism-based, Canis lupus familiaris; set-up: dose 10 mg/kg, route oral; conditions: in vivo
[11] = Bioavailability in Beagle dog at 10 mg/kg, po; type: ADME, organism-based, Canis lupus familiaris; conditions: in vivo
[12] = Tmax in Beagle dog at 10 mg/kg, po; type: ADME, organism-based, Canis lupus familiaris; set-up: dose 10 mg/kg, route oral; conditions: in vivo
[13] = Bioavailability in Wistar rat at 10 mg/kg, po; type: ADME, organism-based; conditions: in vivo
[14] = Half life in Beagle dog at 1 mg/kg, iv; type: ADME, organism-based, Canis lupus familiaris; set-up: dose 1 mg/kg, route intravenous; conditions: in vivo
[15] = biological target: T3, Adenosine receptor A2b; experiment: Inhibition of NECA-induced IL6 production in Swiss mouse fibroblasts after 24 hrs by ELISA; type: functional
[16] = biological target: T4, Adenosine receptors; A2b & A3 (Homo sapiens, UniProt P29275+P0DMS8); experiment: Inhibition of NECA-induced IL6 production in human fibroblast after 24 hrs by ELISA; type: functional
T4 sequence (P29275 whole entry): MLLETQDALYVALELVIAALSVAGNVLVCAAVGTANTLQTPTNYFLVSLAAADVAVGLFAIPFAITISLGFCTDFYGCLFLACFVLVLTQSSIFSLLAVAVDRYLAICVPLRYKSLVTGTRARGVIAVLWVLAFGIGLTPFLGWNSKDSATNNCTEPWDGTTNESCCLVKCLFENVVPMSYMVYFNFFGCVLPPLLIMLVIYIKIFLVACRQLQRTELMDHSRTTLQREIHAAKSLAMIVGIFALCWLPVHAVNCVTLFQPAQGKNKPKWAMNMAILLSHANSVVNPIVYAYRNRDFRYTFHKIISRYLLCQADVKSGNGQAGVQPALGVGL
T4 sequence (P0DMS8 whole entry): T1 sequence (whole entry)

[17] = Half life in Wistar rat at 1 mg/kg, iv; type: ADME, organism-based; set-up: dose 1 mg/kg, route intravenous; conditions: in vivo
[18] = AUC in Beagle dog at 10 mg/kg, po; type: ADME, organism-based, Canis lupus familiaris; set-up: dose 10 mg/kg, route oral; conditions: plasma
[19] = Cmax in Wistar rat at 10 mg/kg, po; type: ADME, organism-based; set-up: dose 10 mg/kg, route oral; conditions: in vivo
[20] = Mean residence time in Wistar rat at 1 mg/kg, iv; type: ADME, organism-based; set-up: dose 1 mg/kg, route intravenous; conditions: in vivo
[21] = biological target: T5, Adenosine receptor A2a (Homo sapiens, UniProt P29274); experiment: Displacement of [3H]ZM-241385 from human A2A receptor expressed in HeLa cells at 2500 nM; type: cell-based
T5 sequence (P29274 whole entry): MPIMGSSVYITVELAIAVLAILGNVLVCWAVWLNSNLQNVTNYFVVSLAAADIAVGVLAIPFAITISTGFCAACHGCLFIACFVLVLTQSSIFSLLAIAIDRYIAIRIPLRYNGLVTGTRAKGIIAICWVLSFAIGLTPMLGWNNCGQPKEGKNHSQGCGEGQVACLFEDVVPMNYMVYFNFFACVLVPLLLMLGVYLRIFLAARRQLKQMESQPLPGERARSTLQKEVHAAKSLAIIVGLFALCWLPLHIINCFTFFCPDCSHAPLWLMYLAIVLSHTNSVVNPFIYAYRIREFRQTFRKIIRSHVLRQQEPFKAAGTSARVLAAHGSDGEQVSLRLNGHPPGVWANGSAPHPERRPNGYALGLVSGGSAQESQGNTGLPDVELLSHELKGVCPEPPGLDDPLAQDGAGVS

[22] = Mean residence time in Wistar rat at 10 mg/kg, po; type: ADME, organism-based; set-up: dose 10 mg/kg, route oral; conditions: in vivo
[23] = biological target: T6, Adenosine receptor A1 (Homo sapiens, UniProt P30542); experiment: Displacement of [3H]DPCPX from human A1 receptor expressed in CHO cells; type: cell-based
T6 sequence (P30542 whole entry): T2 sequence (whole entry)

[24] = biological target: T7, Adenosine receptor A3 (Homo sapiens, UniProt P0DMS8); experiment: Displacement of […] from human A3 receptor expressed in HeLa cells; type: cell-based
T7 sequence (P0DMS8 whole entry): T1 sequence (whole entry)

[25] = biological target: T8, Adenosine receptor A2b (Homo sapiens, UniProt P29275); experiment: Activity at human A2B receptor expressed in HEK293 cells assessed as inhibition of NECA-induced intracellular cAMP levels by ELISA; type: functional, cell-based
T8 sequence (P29275 whole entry): T4 sequence (P29275 whole entry)

[26] = biological target: T8, Adenosine receptor A2b; experiment: Displacement of [3H]DPCPX from human A2B receptor expressed in HEK293 cells; type: cell-based
[27] = Volume of distribution at steady state in Beagle dog at 1 mg/kg, iv; type: ADME, organism-based, Canis lupus familiaris; set-up: dose 1 mg/kg, route intravenous; conditions: in vivo, read-out: Vdss
[28] = Tmax in Wistar rat at 10 mg/kg, po; type: ADME, organism-based; set-up: dose 10 mg/kg, route oral; conditions: in vivo
[29] = Mean residence time in Beagle dog at 1 mg/kg, iv; type: ADME, organism-based, Canis lupus familiaris; set-up: dose 1 mg/kg, route intravenous; conditions: in vivo
[30] = biological target: T5, Adenosine receptor A2a; experiment: Displacement of [3H]ZM-241385 from human A2A receptor expressed in HeLa cells; type: cell-based
[31] = biological target: Adenosine receptor A3 (Mus musculus) (UniProt Q61618); conditions: CHO, 10 uM
Sequence of Adenosine receptor A3 (Mus musculus) (Q61618 whole entry, looked up): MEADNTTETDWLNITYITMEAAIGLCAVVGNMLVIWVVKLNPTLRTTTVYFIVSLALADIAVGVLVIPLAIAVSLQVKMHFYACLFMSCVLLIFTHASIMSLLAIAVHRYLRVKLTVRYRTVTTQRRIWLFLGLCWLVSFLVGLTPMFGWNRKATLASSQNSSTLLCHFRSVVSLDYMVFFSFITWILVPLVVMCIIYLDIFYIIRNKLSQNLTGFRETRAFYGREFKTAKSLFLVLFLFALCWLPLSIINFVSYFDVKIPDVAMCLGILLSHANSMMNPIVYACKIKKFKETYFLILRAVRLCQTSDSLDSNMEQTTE
Description: Activity at mouse A3 receptor expressed in CHO cells assessed as inhibition of NECA-induced intracellular cAMP levels at 10 uM by ELISA

[32] = AUC in Wistar rat at 10 mg/kg, po; type: ADME, organism-based; set-up: dose 10 mg/kg, route oral; conditions: plasma
[33] = Clearance in Beagle dog at 1 mg/kg, iv; type: ADME, organism-based, Canis lupus familiaris; set-up: dose 1 mg/kg, route intravenous; conditions: in vivo
[34] = biological target: T2, Adenosine receptor A1 (Homo sapiens); experiment: Displacement of [3H]DPCPX from human A1 receptor expressed in CHO cells at 10000 nM; type: cell-based

SMILES: c1cncc(Nc2ncc(-c3ccncn3)c(-c3ccco3)n2)c1
- Vd [1]: 0.5 L/kg
- inhibition [2]: 36%
- inhibition [3]: 14%
- Cmax [4]: 13 µM
- clearance [5]: 25 mL/min/kg
- Cmax [6]: 6 µM
- Tmax [7]: 18 min
- pIC50 [8]: 6.46
- AUC [9]: 4 µM·h
- MRT [10]: 108 min
- bioavailability [11]: 81%
- Tmax [12]: 78 min
- bioavailability [13]: 75%
- half-life [14]: 48 min
- pIC50 [15]: 6.19
- IC50 [16]: 340 nM
- half-life [17]: 12 min
- AUC [18]: 15 µM·h
- Cmax [19]: 11 µM
- MRT [20]: 18 min
- inhibition [21]: 40%
- MRT [22]: 84 min
- pKi [23]: < 6.00
- pKi [24]: < 6.00
- pIC50 [25]: 6.49
- pKi [26]: 7.77
- Vd [27]: 1.1 L/kg
- Tmax [28]: 18 min
- MRT [29]: 42 min
- pKi [30]: < 5.60
- inhibition [31]: 5%
- AUC [32]: 16 µM·h
- clearance [33]: 28 mL/min/kg

SMILES: COc1ccc(Nc2ncc(-c3ccncn3)c(-c3ccco3)n2)cn1
- inhibition [2]: 29%
- inhibition [34]: 25%
- inhibition [21]: 21%
- pKi [23]: < 5.00
- pKi [24]: < 6.00
- pKi [26]: 6.94
- pKi [30]: < 5.60

SMILES: O=c1ccc(Nc2ncc(-c3ccncn3)c(-c3ccco3)n2)c[nH]1
- inhibition [2]: 15%
- inhibition [34]: 31%
- inhibition [21]: 25%
- pKi [23]: < 5.00
- pKi [24]: < 6.00
- pKi [26]: 7.80
- pKi [30]: < 5.60

SMILES: COc1ncc(Nc2ncc(-c3ccncn3)c(-c3ccco3)n2)cn1
- inhibition [2]: 32%
- inhibition [34]: 45%
- inhibition [21]: 25%
- pKi [23]: < 5.00
- pKi [24]: < 6.00
- pKi [26]: 7.41
- pKi [30]: < 5.60

SMILES: N#Cc1cncc(Nc2ncc(-c3ccncn3)c(-c3ccco3)n2)c1
- inhibition [2]: 24%
- inhibition [34]: 22%
- inhibition [21]: 37%
- pKi [23]: < 5.00
- pKi [24]: < 6.00
- pKi [26]: 7.16
- pKi [30]: < 5.60

SMILES: c1coc(-c2nc(Nc3cnccn3)ncc2-c2ccncn2)c1
- inhibition [2]: 18%
- inhibition [34]: 30%
- inhibition [21]: 21%
- pKi [23]: < 5.00
- pKi [24]: < 6.00
- pKi [26]: 6.94
- pKi [30]: < 5.60

SMILES: c1coc(-c2nc(Nc3cncnc3)ncc2-c2ccncn2)c1
- inhibition [2]: 42%
- inhibition [21]: 29%
- pIC50 [23]: 7.35
- pKi [23]: < 5.00
- pKi [24]: < 6.00
- pKi [26]: 7.62
- pKi [30]: < 5.60

SMILES: [O-][n+]1cccc(Nc2ncc(-c3ccncn3)c(-c3ccco3)n2)c1
- inhibition [2]: 35%
- inhibition [34]: 38%
- inhibition [21]: 24%
- pKi [23]: < 5.00
- pKi [24]: < 6.00
- pKi [26]: 7.47
- pKi [30]: < 5.60

SMILES: O=c1ccc(Nc2ncc(-c3ccncn3)c(-c3ccco3)n2)cn1CC1CC1
- inhibition [2]: 29%
- inhibition [34]: 28%
- inhibition [21]: 38.5%
- pKi [23]: < 5.00
- pKi [24]: < 6.00
- pKi [26]: 6.92
- pKi [30]: < 5.60

SMILES: Cn1cc(Nc2ncc(-c3ccncn3)c(-c3ccco3)n2)ccc1=O
- inhibition [2]: 28%
- inhibition [34]: 17%
- inhibition [21]: 20%
- pKi [23]: < 5.00
- pKi [24]: < 6.00
- pKi [26]: 7.55
- pKi [30]: < 5.60
